Measurements published in ChEMBL document CHEMBL1201862, “PubChem BioAssay data set” (2004).
Calls of active or inactive are those of the source.

What was measured:
[1] = target: T1, Mitochondrial peptide methionine sulfoxide reductase (Bos taurus, UniProt P54149); assay: Absorbance-based biochemical high throughput dose response assay for activators of Methionine sulfoxide reductase A (MsrA).; assay type: functional
T1 sequence (P54149 whole entry): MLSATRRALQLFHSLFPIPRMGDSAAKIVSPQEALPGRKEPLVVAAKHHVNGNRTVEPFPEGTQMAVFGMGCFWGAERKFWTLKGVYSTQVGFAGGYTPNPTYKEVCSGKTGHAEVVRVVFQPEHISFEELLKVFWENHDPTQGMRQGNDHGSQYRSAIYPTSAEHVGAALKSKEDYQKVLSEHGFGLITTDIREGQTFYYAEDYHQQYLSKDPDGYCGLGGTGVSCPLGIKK

[2] = target: Tyrosine-protein phosphatase non-receptor type 11 (Homo sapiens, UniProt Q06124); assay: PTPN11 enzyme inhibitors – biochemical, selectivity assay for STEP inhibitor project, dose response (AID 602367); assay type: functional; details: read-out: IC50_Mean
Chain of Tyrosine-protein phosphatase non-receptor type 11 (Q06124 whole entry): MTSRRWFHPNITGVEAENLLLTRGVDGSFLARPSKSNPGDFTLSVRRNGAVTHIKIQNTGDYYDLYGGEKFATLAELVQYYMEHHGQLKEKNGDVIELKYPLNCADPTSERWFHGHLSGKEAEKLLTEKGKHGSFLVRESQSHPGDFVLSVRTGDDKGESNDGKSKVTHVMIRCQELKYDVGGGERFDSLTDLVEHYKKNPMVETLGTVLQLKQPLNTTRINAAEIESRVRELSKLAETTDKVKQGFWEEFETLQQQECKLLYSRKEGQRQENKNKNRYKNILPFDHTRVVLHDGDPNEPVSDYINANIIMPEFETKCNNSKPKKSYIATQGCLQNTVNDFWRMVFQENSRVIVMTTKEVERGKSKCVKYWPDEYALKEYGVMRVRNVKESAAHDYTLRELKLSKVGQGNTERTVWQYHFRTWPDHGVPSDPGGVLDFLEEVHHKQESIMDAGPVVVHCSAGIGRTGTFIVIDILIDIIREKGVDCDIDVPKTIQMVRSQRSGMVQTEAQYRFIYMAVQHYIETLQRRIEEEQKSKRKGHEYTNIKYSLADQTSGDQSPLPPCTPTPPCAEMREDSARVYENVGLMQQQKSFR

[3] = target: Tyrosine-protein phosphatase non-receptor type 5 (Homo sapiens, UniProt P54829); assay: PTPN5 enzyme inhibition – biochemical, fluorescence intensity, uHTS hits, confirmation (AID 602372); assay type: functional; details: read-out: IC50_Mean
Chain of Tyrosine-protein phosphatase non-receptor type 5 (P54829 whole entry): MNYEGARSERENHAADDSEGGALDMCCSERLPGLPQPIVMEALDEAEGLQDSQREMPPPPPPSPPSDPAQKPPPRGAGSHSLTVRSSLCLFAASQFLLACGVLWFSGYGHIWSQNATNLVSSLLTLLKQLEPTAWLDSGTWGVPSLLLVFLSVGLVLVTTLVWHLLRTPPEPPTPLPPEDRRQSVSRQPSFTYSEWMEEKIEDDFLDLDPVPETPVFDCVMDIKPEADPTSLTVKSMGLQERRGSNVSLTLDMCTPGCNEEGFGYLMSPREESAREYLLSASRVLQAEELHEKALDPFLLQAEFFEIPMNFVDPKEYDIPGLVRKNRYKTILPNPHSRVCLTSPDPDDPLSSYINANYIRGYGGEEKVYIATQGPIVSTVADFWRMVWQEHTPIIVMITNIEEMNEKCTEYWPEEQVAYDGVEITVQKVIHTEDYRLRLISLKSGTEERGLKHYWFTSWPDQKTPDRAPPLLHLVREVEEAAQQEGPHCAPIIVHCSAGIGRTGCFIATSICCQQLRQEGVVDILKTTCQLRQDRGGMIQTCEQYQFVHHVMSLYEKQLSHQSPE

[4] = target: Dual specificity protein phosphatase 3 (Homo sapiens, UniProt P51452); assay: VHR phosphatase inhibition, dose response, selectivity assay for STEP inhibitor project, biochemical (AID 602374); assay type: functional; details: read-out: IC50_Mean
BJ [5] = assay: BJ-TERT-LT-ST fibroblast viability loss – cell-based, RAS-independent, luminescence, dose response (AID 1935); assay type: functional; details: Homo sapiens;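 note: BJ fibroblasts immortalized with TERT plus LT and ST oncogenes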
BJ [6] = assay: cells; assay type: functional, cell-based; details: Homo sapiens
[7] = target: 26S proteasome non-ATPase regulatory subunit 14 (Homo sapiens, UniProt O00487); assay: inhibition of proteasome subunit RPN11 – biochemical, fluorescence polarization, uHTS hits, confirmation (AID 602368); assay type: functional
[8] = target: T2, Heat shock factor protein 1 (Mus musculus, UniProt P38532); assay: decrease of HSF1-responsive luciferase luminescence – cell-based, NIH3T3, dose retest, confirmation (AID 2382); assay type: functional;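 note: NIH3T3 fibroblasts with HSF1-driven luciferase reporter stressed by proteasome inhibitor MG132; luminescence from HSF1-driven luciferase expression after 8 hours of MG132 stress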
T2 sequence (P38532 whole entry): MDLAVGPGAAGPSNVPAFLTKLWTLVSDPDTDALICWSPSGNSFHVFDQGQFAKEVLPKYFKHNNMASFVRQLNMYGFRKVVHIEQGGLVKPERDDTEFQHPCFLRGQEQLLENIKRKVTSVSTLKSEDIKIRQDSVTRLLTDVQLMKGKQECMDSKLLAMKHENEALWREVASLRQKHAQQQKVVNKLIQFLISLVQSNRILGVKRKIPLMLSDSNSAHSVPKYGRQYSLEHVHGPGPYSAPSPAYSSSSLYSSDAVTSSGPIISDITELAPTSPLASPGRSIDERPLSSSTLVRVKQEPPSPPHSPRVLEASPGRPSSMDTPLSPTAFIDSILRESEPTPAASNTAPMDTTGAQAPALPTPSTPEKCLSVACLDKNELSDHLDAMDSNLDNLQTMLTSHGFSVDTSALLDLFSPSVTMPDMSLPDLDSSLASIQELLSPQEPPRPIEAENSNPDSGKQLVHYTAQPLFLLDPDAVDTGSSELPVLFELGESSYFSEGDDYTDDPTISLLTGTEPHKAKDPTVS

BJ [9] = assay: growth inhibition of engineered Ras-driven BJ cells – cell-based, alamar blue fluorescence, cherrypicked samples, dose response (AID 2631); assay type: functional; details: Homo sapiens;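 note: confirmatory dose-response assay in RAS-dependent BJ fibroblasts engineered with TERT, LT and ST, with cytotoxicity read by fluorescence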
Prothrombin = Prothrombin (Bos taurus, UniProt P00735); assay: thrombin protease inhibitors – biochemical, fluorescence polarization, uHTS hits, dose response (AID 602369); assay type: functional
[10] = target: T3, DNA repair protein RAD52 homolog (Homo sapiens, UniProt P43351); assay type: functional, biochemical
T3 sequence (P43351 whole entry): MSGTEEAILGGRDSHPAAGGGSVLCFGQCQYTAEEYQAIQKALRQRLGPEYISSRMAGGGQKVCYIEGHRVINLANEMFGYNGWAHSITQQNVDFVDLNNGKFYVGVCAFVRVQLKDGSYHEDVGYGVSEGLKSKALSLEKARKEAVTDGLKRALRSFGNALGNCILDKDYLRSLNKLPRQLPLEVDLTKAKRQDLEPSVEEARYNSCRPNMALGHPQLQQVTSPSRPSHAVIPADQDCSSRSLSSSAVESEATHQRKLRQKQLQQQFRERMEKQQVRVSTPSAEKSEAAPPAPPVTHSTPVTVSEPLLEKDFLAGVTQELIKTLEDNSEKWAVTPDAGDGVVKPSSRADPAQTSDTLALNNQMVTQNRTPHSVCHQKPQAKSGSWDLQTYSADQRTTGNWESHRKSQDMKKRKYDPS

BJ [11] = assay: BJ-TERT fibroblast viability loss – cell-based, RAS-independent, luminescence, dose response (AID 1933); assay type: functional; details: Homo sapiens
[12] = target: 72 kDa type IV collagenase (Homo sapiens, UniProt P08253); assay: Dose Response validation of uHTS RPN11 inhibitor hits using a MMP-2 Fluorescence assay.; assay type: functional
[13] = DRD fibroblast viability loss – cell-based, non-viral oncogenic, luminescence, dose response (AID 1934); assay type: functional; details: Homo sapiens
[14] = target: T4, Replicative DNA helicase DnaB (Mycobacterium tuberculosis, UniProt P9WMR3); assay: DnaB intein splicing inhibitors, dose response, biochemical, cell-free fluorescence (AID 449749); assay type: functional
T4 sequence (P9WMR3 whole entry): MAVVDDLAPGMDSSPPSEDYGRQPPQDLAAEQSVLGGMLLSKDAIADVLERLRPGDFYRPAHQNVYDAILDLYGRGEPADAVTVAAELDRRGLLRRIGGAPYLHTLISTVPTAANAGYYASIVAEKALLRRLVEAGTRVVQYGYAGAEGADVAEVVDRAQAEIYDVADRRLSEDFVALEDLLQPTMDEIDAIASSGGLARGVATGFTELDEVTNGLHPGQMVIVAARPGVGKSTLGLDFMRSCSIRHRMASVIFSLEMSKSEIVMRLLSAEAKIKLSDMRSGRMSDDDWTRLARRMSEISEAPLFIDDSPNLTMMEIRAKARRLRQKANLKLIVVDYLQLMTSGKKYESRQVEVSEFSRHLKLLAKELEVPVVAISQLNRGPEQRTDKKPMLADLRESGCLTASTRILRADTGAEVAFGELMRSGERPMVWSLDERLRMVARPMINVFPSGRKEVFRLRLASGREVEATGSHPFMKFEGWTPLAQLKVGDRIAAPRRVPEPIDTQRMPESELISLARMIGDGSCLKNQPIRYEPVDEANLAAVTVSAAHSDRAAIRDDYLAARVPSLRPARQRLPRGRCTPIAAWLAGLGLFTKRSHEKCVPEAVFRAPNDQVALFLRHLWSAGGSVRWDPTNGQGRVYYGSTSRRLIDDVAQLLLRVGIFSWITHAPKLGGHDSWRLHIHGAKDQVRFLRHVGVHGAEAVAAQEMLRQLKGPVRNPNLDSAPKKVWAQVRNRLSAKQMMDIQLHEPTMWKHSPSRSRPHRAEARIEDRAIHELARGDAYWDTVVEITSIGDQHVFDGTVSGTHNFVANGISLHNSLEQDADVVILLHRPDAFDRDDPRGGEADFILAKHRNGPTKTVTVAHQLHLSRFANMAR

[15] = microbe, parasite or virus in culture; assay type: functional; details: Mycobacterium tuberculosis
Protein RecA = target: T5, Protein RecA (Mycobacterium tuberculosis, UniProt P9WHJ3); assay: Fluorescence Cell-Free Homogeneous Dose Retest to Identify Inhibitors of RecA-Intein Splicing Activity. [Related pubchem assays (depositor defined):AID2097, AID2223, AID489010, AID492950]; assay type: functional
T5 sequence (P9WHJ3 whole entry): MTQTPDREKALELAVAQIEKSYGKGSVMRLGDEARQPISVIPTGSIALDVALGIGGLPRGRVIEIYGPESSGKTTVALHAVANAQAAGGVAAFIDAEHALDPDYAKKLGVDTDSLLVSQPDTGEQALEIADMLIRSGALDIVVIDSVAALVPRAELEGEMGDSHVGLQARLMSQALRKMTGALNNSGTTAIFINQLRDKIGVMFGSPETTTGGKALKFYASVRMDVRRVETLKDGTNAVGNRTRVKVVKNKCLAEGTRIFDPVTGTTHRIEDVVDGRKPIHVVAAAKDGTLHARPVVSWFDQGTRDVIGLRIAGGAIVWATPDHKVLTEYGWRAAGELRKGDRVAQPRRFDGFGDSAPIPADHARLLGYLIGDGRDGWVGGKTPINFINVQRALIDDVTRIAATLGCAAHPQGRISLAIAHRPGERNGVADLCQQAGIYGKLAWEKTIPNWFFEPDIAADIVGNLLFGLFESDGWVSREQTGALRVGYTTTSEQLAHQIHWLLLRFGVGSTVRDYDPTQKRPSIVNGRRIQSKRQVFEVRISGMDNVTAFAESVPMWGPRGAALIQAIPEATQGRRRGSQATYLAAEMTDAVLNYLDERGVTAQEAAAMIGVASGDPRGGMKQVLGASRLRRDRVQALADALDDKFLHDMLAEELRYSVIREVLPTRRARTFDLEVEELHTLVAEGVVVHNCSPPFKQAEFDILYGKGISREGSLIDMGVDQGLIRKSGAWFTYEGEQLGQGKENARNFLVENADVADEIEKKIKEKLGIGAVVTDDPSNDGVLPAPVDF

[16] = target: Peroxisome proliferator-activated receptor gamma/Nuclear receptor coactivator 2 (Homo sapiens, UniProt P37231); assay type: functional;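 note: agonist potency for raising coactivator recruitment to the receptor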
Chain of Peroxisome proliferator-activated receptor gamma/Nuclear receptor coactivator 2 (P37231 whole entry): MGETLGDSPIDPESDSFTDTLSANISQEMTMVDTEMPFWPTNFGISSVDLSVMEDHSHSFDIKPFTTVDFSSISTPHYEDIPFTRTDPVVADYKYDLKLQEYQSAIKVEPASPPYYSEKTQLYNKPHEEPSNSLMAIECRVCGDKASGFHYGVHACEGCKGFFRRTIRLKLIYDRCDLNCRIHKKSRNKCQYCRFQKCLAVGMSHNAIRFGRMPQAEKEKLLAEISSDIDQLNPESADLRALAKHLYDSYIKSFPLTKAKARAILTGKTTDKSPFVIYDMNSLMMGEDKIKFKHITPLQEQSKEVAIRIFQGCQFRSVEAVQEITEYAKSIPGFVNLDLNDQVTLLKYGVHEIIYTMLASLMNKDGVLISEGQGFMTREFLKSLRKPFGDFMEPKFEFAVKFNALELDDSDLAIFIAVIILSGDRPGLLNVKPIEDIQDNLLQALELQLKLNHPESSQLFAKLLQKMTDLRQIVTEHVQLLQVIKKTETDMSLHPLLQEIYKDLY
Chain of Peroxisome proliferator-activated receptor gamma/Nuclear receptor coactivator 2 (Q15596 whole entry, further chain): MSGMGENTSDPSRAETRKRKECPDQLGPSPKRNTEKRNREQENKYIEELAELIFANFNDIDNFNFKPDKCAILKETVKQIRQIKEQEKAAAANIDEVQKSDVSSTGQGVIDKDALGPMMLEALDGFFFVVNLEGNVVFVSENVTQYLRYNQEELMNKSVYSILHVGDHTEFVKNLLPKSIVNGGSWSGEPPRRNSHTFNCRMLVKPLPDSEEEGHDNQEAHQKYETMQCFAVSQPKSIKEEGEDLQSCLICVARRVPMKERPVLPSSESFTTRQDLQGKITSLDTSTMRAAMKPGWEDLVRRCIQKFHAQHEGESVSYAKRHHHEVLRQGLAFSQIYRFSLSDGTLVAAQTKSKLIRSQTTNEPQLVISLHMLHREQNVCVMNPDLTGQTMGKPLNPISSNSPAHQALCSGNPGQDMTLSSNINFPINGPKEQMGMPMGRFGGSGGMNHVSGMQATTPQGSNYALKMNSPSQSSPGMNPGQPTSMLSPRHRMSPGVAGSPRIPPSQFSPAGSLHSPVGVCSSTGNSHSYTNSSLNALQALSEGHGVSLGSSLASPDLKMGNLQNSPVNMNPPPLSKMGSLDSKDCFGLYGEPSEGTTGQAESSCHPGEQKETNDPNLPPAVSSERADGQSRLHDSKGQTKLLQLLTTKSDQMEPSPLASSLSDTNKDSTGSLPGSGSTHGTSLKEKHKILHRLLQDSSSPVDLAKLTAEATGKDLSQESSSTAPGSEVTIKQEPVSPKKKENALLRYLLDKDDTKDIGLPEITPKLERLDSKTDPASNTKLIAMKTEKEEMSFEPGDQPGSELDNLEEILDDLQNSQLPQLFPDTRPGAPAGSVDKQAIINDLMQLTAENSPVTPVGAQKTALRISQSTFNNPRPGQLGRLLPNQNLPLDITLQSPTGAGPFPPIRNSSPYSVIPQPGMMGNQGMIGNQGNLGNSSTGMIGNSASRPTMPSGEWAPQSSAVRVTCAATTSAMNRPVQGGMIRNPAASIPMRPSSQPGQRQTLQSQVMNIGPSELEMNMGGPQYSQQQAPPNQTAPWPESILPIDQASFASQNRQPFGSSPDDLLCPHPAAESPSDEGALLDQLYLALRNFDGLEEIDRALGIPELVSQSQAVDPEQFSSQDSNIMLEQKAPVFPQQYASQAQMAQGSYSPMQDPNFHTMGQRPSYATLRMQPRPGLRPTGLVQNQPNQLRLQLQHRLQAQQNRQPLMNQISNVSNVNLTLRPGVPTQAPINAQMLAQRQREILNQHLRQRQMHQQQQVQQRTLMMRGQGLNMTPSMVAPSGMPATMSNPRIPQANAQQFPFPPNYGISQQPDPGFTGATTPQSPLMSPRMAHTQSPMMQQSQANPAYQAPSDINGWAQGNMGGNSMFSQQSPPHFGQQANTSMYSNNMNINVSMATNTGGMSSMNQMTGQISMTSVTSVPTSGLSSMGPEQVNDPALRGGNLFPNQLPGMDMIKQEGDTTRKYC

[17] = viability of HCT116 lacking mutant beta-catenin – cell-based, human colon tumor, dose response (AID 1045); assay type: functional;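 note: HCT116 colon tumor cells with beta catenin knocked out; cells exposed to compound for 60 hours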
[18] = target: Peroxisome proliferator-activated receptor gamma/Nuclear receptor coactivator 1 (Homo sapiens, UniProt P37231); assay type: functional;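 note: agonist potency as compounds enhance coactivator SRC-1 recruitment to PPARgamma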
[19] = viability of PTEN-deleted HCT116 cells – cell-based, HCT116 PTEN knockout, dose response (AID 1047); assay type: functional;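 note: HCT116 colon tumor cells with PTEN knocked out; cells exposed to compound for 60 hours before readout; potency for loss of cell viability measured by luminescence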
[20] = target: Peroxisome proliferator-activated receptor gamma/Nuclear receptor coactivator 3 (Homo sapiens, UniProt P37231); assay type: functional;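 note: agonist potency for raising coactivator recruitment to the receptor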
Chain of Peroxisome proliferator-activated receptor gamma/Nuclear receptor coactivator 3 (P37231 whole entry): as the sequence (P37231 whole entry) above
Chain of Peroxisome proliferator-activated receptor gamma/Nuclear receptor coactivator 3 (Q9Y6Q9 whole entry, further chain): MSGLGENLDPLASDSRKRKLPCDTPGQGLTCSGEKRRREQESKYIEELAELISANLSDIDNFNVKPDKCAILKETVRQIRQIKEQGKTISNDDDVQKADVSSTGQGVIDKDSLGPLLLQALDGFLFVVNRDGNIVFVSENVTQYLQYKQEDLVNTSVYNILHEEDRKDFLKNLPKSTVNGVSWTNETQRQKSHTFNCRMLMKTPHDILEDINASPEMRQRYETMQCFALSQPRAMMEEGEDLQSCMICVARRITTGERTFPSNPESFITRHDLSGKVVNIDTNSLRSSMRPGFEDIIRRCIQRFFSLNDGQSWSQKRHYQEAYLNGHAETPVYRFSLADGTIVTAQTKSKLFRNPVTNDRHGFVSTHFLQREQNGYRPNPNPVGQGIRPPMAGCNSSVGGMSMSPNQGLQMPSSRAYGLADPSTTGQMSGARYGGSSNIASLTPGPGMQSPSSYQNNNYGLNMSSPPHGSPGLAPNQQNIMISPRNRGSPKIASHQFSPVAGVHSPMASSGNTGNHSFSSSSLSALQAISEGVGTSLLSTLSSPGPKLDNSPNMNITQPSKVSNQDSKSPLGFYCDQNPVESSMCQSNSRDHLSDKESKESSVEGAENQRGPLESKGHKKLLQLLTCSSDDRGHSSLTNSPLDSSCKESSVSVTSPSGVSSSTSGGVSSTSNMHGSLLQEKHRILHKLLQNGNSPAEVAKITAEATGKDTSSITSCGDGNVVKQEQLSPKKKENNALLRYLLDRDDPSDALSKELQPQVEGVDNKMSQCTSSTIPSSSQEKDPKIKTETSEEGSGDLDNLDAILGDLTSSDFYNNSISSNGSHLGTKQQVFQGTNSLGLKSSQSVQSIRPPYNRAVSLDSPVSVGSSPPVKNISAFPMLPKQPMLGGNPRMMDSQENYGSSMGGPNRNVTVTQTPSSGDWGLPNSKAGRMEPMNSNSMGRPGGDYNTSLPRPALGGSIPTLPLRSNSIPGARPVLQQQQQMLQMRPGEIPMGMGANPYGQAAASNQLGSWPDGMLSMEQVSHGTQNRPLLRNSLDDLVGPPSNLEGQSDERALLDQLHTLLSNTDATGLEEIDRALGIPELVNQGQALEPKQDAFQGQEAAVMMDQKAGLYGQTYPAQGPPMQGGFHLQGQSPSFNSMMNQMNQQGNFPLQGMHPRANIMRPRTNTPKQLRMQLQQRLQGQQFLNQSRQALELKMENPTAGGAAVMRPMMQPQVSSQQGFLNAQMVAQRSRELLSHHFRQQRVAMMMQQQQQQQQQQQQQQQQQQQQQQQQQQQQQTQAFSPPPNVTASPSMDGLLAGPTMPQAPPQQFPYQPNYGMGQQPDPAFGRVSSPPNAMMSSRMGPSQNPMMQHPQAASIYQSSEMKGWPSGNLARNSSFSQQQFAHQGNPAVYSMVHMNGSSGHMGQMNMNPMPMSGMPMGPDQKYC

COc1ccc(OC)c(/C=N/N(CCC#N)C2=NS(=O)(=O)c3ccccc32)c1
EC50 [1]: > 104 µM (inactive)

O=C(N/N=C/c1coc2ccccc2c1=O)c1cc2ccccc2o1
IC50 [2]: 33.4 µM (inactive) | IC50 [3]: 35.8 µM (inactive) | IC50 [4]: 14.1 µM (active)

CCN1CCc2c(sc(NC(=O)c3cc4ccccc4cc3OC)c2C(N)=O)C1
EC50 (BJ [5]): 4.91 µM (inconclusive) | EC50 (BJ [6]): 5.67 µM (inconclusive) | IC50 [7]: 26.3 µM (active) | EC50 [8]: 40.7 µM (active) | EC50 (BJ [9]): 0.937 µM (active) | IC50 (Prothrombin): 32.5 µM (active) | AC50 [10]: 3.75 µM (active) | EC50 (BJ [11]): 4.46 µM (inconclusive) | IC50 [12]: > 100 µM (inactive) | EC50 [13]: 6.38 µM (active)

O=c1c(Cl)nc2cc(Cl)ccc2n1CCNc1ncc(C(F)(F)F)cc1Cl
AC50 [14]: > 120 µM (inactive) | EC50 (BJ [5]): 1.98 µM (active) | EC50 (BJ [6]): 6.1 µM (inconclusive) | CC50 [15]: 11.5 µM (active) | EC50 (BJ [9]): 0.574 µM (inconclusive) | EC50 (Protein RecA): 0.951 µM (active) | EC50 [16]: 20.1 µM (not active) | EC50 [17]: 4.66 µM (active) | EC50 (BJ [11]): 2.67 µM (inconclusive) | EC50 [18]: 19.8 µM (not active) | EC50 [19]: 4.75 µM (active) | EC50 [20]: 36.3 µM (not active) | EC50 [13]: 2.81 µM (inconclusive)
